# Patent publication US10174029B2, “Pyrimidine-2,4-diamine derivatives for treatment of cancer” (THOMAS HELLEDAYS STIFTELSE FOR MEDICINSK FORSKNING, priority 2012, dated 2019)
# Target: MTH1 (Homo sapiens, UniProt P36639)
# Test: MTH1 enzymatic assay and IC50 value determination (malachite green)
# Type: biochemical
# Conditions: MTH1 4.8 nM, dGTP 100 μM, 15 minutes at 22° C.; group: less than 200 nM
# Procedure, shortened: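 Malachite green detection of Pi after coupling dGTP hydrolysis to excess E. coli pyrophosphatase; 4.8 nM MTH1, 100 μM dGTP in Tris-acetate buffer with Mg2+ and DTT, 1% DMSO, 15 min at 22 °C. 12-point 1:3 compound series; absorbance at 630 nm; IC50 by four-parameter nonlinear regression.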
row,Compound,IC50 [nM]
1,"Cc1cccc(-c2cc(NCCCCNS(=O)(=O)c3ccc(S(C)(=O)=O)cc3)nc(N)n2)c1C [Example 424, N-(4-{[2-amino-6-(2,3-dimethylphenyl)pyrimidin-4-yl]amino}butyl)-4-methanesulfonylbenzene-1-sulfonamide]",< 200
2,"Cc1c(C#N)cccc1-c1cc(NCCc2ccc(S(N)(=O)=O)cc2)nc(N)n1 [Example 426, 4-(2-{[2-amino-6-(3-cyano-2-methylphenyl)pyrimidin-4-yl]amino}ethyl)benzene-1-sulfonamide]",< 200
3,"Cc1c(-c2cc(NCCc3ccc(S(N)(=O)=O)cc3)nc(N)n2)ccc(Cl)c1Cl [Example 428, 4-(2-{[2-amino-6-(3,4-dichloro-2-methylphenyl)pyrimidin-4-yl]amino}ethyl)benzene-1-sulfonamide]",< 200
4,"C#CCNc1cc(-c2cccc(Cl)c2C)nc(N)n1 [Example 429, 6-(3-chloro-2-methylphenyl)-4-N-(prop-2-yn-1-yl)pyrimidine-2,4-diamine]",< 200
5,"Cc1c(F)ccc(-c2cc(NCCc3ccc(S(C)(=O)=O)cc3)nc(N)n2)c1C [Example 430, 6-(4-fluoro-2,3-dimethylphenyl)-4-N-[2-(4-methanesulfonylphenyl)ethyl]pyrimidine-2,4-diamine]",< 200
6,"Cc1cc(Cl)ccc1-c1cc(NCCc2ccc(S(N)(=O)=O)cc2)nc(N)n1 [Example 432, 4-(2-{[2-amino-6-(4-chloro-2-methylphenyl)pyrimidin-4-yl]amino}ethyl)benzene-1-sulfonamide]",< 200
7,"Nc1nc(NCCc2ccc(S(N)(=O)=O)cc2)cc(-c2ccc(F)c(F)c2F)n1 [Example 434, 4-(2-{[2-amino-6-(2,3,4-trifluorophenyl)pyrimidin-4-yl]amino}ethyl)benzene-1-sulfonamide]",< 200
8,"Cc1c(F)ccc(-c2cc(NC3CC3)nc(N)n2)c1C [Example 436, 4-N-cyclopropyl-6-(4-fluoro-2,3-dimethylphenyl)pyrimidine-2,4-diamine]",< 200
9,"Cc1cc(-c2cc(NCCc3ccc(S(N)(=O)=O)cc3)nc(N)n2)c(C)cc1F [Example 439, 4-(2-{[2-amino-6-(4-fluoro-2,5-dimethylphenyl)pyrimidin-4-yl]amino}ethyl)benzene-1-sulfonamide]",< 200
10,"Cc1cccc(-c2cc(NCCNc3ccc(S(N)(=O)=O)cn3)nc(N)n2)c1C [Example 443, 6-[(2-{[2-amino-6-(2,3-dimethylphenyl)pyrimidin-4-yl]amino}ethyl)amino]pyridine-3-sulfonamide]",< 200
11,"Cc1cccc(-c2cc(NCCCNS(=O)(=O)c3ccc(S(N)(=O)=O)cc3)nc(N)n2)c1C [Example 444, 1-N-(3-{[2-amino-6-(2,3-dimethylphenyl)pyrimidin-4-yl]amino}propyl)benzene-1,4-disulfonamide]",< 200
12,"CS(=O)(=O)c1ccc(CCNc2cc(-c3cccc(Cl)c3Cl)nc(N)n2)cc1 [Example 445, 6-(2,3-dichlorophenyl)-4-N-[2-(4-methanesulfonylphenyl)ethyl]pyrimidine-2,4-diamine]",< 200
13,"COc1cccc(NCCNc2cc(-c3cccc(C)c3C)nc(N)n2)c1 [Example 447, 6-(2,3-dimethylphenyl)-4-N-{2-[(3-methoxyphenyl)amino]ethyl}pyrimidine-2,4-diamine]",< 200
14,"Cc1cccc(-c2cc(NCCNc3ccc(Br)cn3)nc(N)n2)c1C [Example 451, 4-N-{2-[(5-bromopyridin-2-yl)amino]ethyl}-6-(2,3-dimethylphenyl)pyrimidine-2,4-diamine]",< 200
15,"Cc1noc(C)c1-c1cc(NCCc2ccc(Cl)cc2)nc(N)n1 [Example 453, 4-N-[2-(4-chlorophenyl)ethyl]-6-(dimethyl-1,2-oxazol-4-yl)pyrimidine-2,4-diamine]",< 200
16,"Cc1cccc(-c2cc(NCCNc3cccnc3)nc(N)n2)c1C [Example 454, 6-(2,3-dimethylphenyl)-4-N-{2-[(pyridin-3-yl)amino]ethyl}pyrimidine-2,4-diamine]",< 200
